Values joined by “and” are separate entries in the source; they are usually repeats but may differ in a detail not shown here. Identical values can stand only once. Toxic doses and inconclusive results are not listed. Rule as the data show it: active = T/C of 150% or more; inactive = T/C below 125%.
Tested on: L1210 leukemia ip in BDF1 mice, survival T/C
Test: NCI In Vivo Anticancer Drug Screen. Data for tumor model L1210 Leukemia (intraperitoneal) in B6D2F1 (BDF1) mice
Details: endpoint: mean survival time, higher = longer survival
Method in brief: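 Tumor cells were implanted, animals were treated, and survival was followed. The result divides the treated measurement by the vehicle-control measurement.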

[1] = dose: 100.0 mg/kg/injection, schedule: Q04DX003 (ip), vehicle: saline
[2] = dose: 200.0 mg/kg/injection, schedule: Q04DX003 (ip), vehicle: saline
[3] = dose: 400.0 mg/kg/injection, schedule: Q04DX003 (ip), vehicle: saline
[4] = dose: 100.0 mg/kg/injection, schedule: Q04DX003 (ip), vehicle: Klucel (hydroxypropylcellulose) (HPC)
[5] = dose: 200.0 mg/kg/injection, schedule: Q04DX003 (ip), vehicle: Klucel (hydroxypropylcellulose) (HPC)
[6] = dose: 400.0 mg/kg/injection, schedule: Q04DX003 (ip), vehicle: Klucel (hydroxypropylcellulose) (HPC)
[7] = dose: 5.0 mg/kg/injection, schedule: Q01DX001 (ip), vehicle: saline
[8] = dose: 10.0 mg/kg/injection, schedule: Q01DX001 (ip), vehicle: saline
[9] = dose: 20.0 mg/kg/injection, schedule: Q01DX001 (ip), vehicle: saline
[10] = dose: 75.0 mg/kg/injection, schedule: Q01DX001 (ip), vehicle: saline
[11] = dose: 150.0 mg/kg/injection, schedule: Q01DX001 (ip), vehicle: saline
[12] = dose: 100.0 mg/kg/injection, schedule: Q01DX001 (ip), vehicle: carboxymethylcellulose (CMC)
[13] = dose: 200.0 mg/kg/injection, schedule: Q01DX001 (ip), vehicle: carboxymethylcellulose (CMC)
[14] = dose: 100.0 mg/kg/injection, schedule: Q04DX003 (ip), vehicle: saline with Tween-80
[15] = dose: 200.0 mg/kg/injection, schedule: Q04DX003 (ip), vehicle: saline with Tween-80
[16] = dose: 400.0 mg/kg/injection, schedule: Q04DX003 (ip), vehicle: saline with Tween-80
[17] = dose: 200.0 mg/kg/injection, schedule: Q01DX009 (ip), vehicle: Klucel (hydroxypropylcellulose) (HPC)
[18] = dose: 100.0 mg/kg/injection, schedule: Q01DX001 (ip), vehicle: saline
[19] = dose: 400.0 mg/kg/injection, schedule: Q01DX001 (ip), vehicle: saline
[20] = dose: 100.0 mg/kg/injection, schedule: Q01DX009 (ip), vehicle: Klucel (hydroxypropylcellulose) (HPC)
[21] = dose: 400.0 mg/kg/injection, schedule: Q01DX009 (ip), vehicle: Klucel (hydroxypropylcellulose) (HPC)

Measured: T/C

COC1C(O)C(O)OC(CO)C1O (stereo unspecified)
inactive: dose: 50.0 mg/kg/injection, schedule: Q04DX003 (ip), vehicle: saline 112 % of control | [1] 96 % of control | [2] 104 % of control | [3] 96 % of control | dose: 500.0 mg/kg/injection, schedule: Q01DX009 (ip), vehicle: saline 94 % of control | dose: 1000.0 mg/kg/injection, schedule: Q01DX009 (ip), vehicle: saline 104 % of control

CCCCCCCCCCCCCCCC(=O)Nc1ccc(C(=O)O)cc1
inactive: [4] 95 % of control | [5] 94 % of control | [6] 94 % of control

O=C1CCN(Cl)C(=O)N1Cl
inactive: [7] 93 % of control | [8] 95 % of control | [9] 97 % of control

O=C1CC2C(=O)C1C(C(=O)O)C2C(=O)O (stereo unspecified)
inactive: [10] 112 % of control | [11] 102 % of control | dose: 300.0 mg/kg/injection, schedule: Q01DX001 (ip), vehicle: saline 95 % of control

C[C@]12CCC(=O)C=C1CC[C@H]1[C@@H]3CCC(=O)O[C@@]3(C)CC(=O)[C@@]12F
inactive: [12] 94 % of control | [13] 100 % of control | dose: 400.0 mg/kg/injection, schedule: Q01DX001 (ip), vehicle: carboxymethylcellulose (CMC) 97 % of control

Clc1nc2nc(C3CC3)[nH]c2nc1Cl
inactive: dose: 100.0 mg/kg/injection, schedule: Q01DX009 (ip), vehicle: saline with Tween-80 104 % of control | [14] 97 % of control | dose: 200.0 mg/kg/injection, schedule: Q01DX009 (ip), vehicle: saline with Tween-80 90 % of control | [15] 95 % of control | dose: 400.0 mg/kg/injection, schedule: Q01DX009 (ip), vehicle: saline with Tween-80 111 % of control | [16] 101 % of control

Cn1c(=O)c2c(nc(OC3CCC=CO3)n2C)n(C)c1=O (stereo unspecified)
inactive: dose: 50.0 mg/kg/injection, schedule: Q01DX001 (ip), vehicle: other 98 % of control | dose: 100.0 mg/kg/injection, schedule: Q01DX001 (ip), vehicle: other 95 % of control | dose: 200.0 mg/kg/injection, schedule: Q01DX001 (ip), vehicle: other 88 % of control

NS(=O)(=O)c1cc(Br)c2c(c1)S(=O)(=O)NCN2
inactive: dose: 65.0 mg/kg/injection, schedule: Q01DX009 (ip), vehicle: Klucel (hydroxypropylcellulose) (HPC) 102 % of control | [10] 106 % of control | dose: 135.0 mg/kg/injection, schedule: Q01DX009 (ip), vehicle: Klucel (hydroxypropylcellulose) (HPC) 88 % of control | [11] 96 % of control | [17] 100 % of control | dose: 300.0 mg/kg/injection, schedule: Q01DX009 (ip), vehicle: Klucel (hydroxypropylcellulose) (HPC) 97 % of control | dose: 600.0 mg/kg/injection, schedule: Q01DX009 (ip), vehicle: Klucel (hydroxypropylcellulose) (HPC) 88 % of control

Nc1ccccc1SC(CC(=O)c1ccccc1)c1ccccc1 (stereo unspecified)
inactive: dose: 100.0 mg/kg/injection, schedule: Q04DX002 (ip), vehicle: saline with Tween-80 93 % of control and 96 % of control | [14] 91 % of control | dose: 200.0 mg/kg/injection, schedule: Q04DX002 (ip), vehicle: saline with Tween-80 100 % of control and 103 % of control | [15] 93 % of control and 109 % of control | dose: 400.0 mg/kg/injection, schedule: Q04DX002 (ip), vehicle: saline with Tween-80 98 % of control and 104 % of control | [16] 95 % of control and 91 % of control

Oc1ccccc1Sc1ccccc1O
inactive: [18] 92 % of control | [19] 97 % of control

Cc1ccccc1NC(=O)NCCc1ccccc1
inactive: [20] 93 % of control | [4] 88 % of control | [17] 91 % of control | [5] 93 % of control | [21] 98 % of control | [6] 90 % of control

NC(=O)c1cccs1
inactive: [7] 98 % of control | [8] 98 % of control | [9] 98 % of control | dose: 40.0 mg/kg/injection, schedule: Q01DX001 (ip), vehicle: saline 102 % of control

Cc1coc(NS(=O)(=O)c2ccc(N=Nc3cc(N=Nc4ccccc4)c(N)nc3N)cc2)c1C
inactive: [12] 94 % of control | [13] 105 % of control

Cc1ccc(S(=O)(=O)OC2C(C3CSC(=O)O3)OC3OC(C)(C)OC32)cc1 (stereo unspecified)
inactive: dose: 25.0 mg/kg/injection, schedule: Q04DX002 (ip), vehicle: Klucel (hydroxypropylcellulose) (HPC) 103 % of control | dose: 50.0 mg/kg/injection, schedule: Q04DX002 (ip), vehicle: Klucel (hydroxypropylcellulose) (HPC) 100 % of control | dose: 100.0 mg/kg/injection, schedule: Q04DX002 (ip), vehicle: Klucel (hydroxypropylcellulose) (HPC) 97 % of control

Cc1cccc(N2CCN(CC(O)COc3cccc4ccccc34)CC2)c1 (stereo unspecified)
inactive: [18] 95 % of control | dose: 200.0 mg/kg/injection, schedule: Q01DX001 (ip), vehicle: saline 98 % of control | [19] 95 % of control

CC1C(c2ccccc2)N1P(=O)(c1ccccc1)c1ccccc1 (stereo unspecified)
inactive: dose: 100.0 mg/kg/injection, schedule: Q04DX003 (sc), vehicle: carboxymethylcellulose (CMC) 102 % of control | dose: 200.0 mg/kg/injection, schedule: Q04DX003 (sc), vehicle: carboxymethylcellulose (CMC) 104 % of control | dose: 400.0 mg/kg/injection, schedule: Q04DX003 (sc), vehicle: carboxymethylcellulose (CMC) 98 % of control

CN(C)S(=O)(=O)ON1C(=O)c2ccccc2C1=O
inactive: dose: 75.0 mg/kg/injection, schedule: Q01DX001 (ip), vehicle: other 103 % of control | dose: 150.0 mg/kg/injection, schedule: Q01DX001 (ip), vehicle: other 108 % of control | dose: 300.0 mg/kg/injection, schedule: Q01DX001 (ip), vehicle: other 94 % of control

O=C1NCCCN1
inactive: dose: 100.0 mg/kg/injection, schedule: Q04DX003 (ip), vehicle: saline sonified 104 % of control | dose: 200.0 mg/kg/injection, schedule: Q04DX003 (ip), vehicle: saline sonified 102 % of control | dose: 400.0 mg/kg/injection, schedule: Q04DX003 (ip), vehicle: saline sonified 101 % of control

OC(CN1CCCCC1)c1ccc(/C=C/c2ccc(Cl)cc2)cc1 (stereo unspecified)
inactive: dose: 6.25 mg/kg/injection, schedule: Q01DX009 (ip), vehicle: saline with Tween-80 101 % of control | dose: 6.25 mg/kg/injection, schedule: Q04DX003 (ip), vehicle: saline with Tween-80 93 % of control | dose: 12.5 mg/kg/injection, schedule: Q01DX009 (ip), vehicle: saline with Tween-80 93 % of control | dose: 12.5 mg/kg/injection, schedule: Q04DX003 (ip), vehicle: saline with Tween-80 88 % of control | dose: 25.0 mg/kg/injection, schedule: Q04DX003 (ip), vehicle: saline with Tween-80 98 % of control and 87 % of control | dose: 100.0 mg/kg/injection, schedule: Q01DX001 (ip), vehicle: saline with Tween-80 88 % of control

CCOC(=O)n1cnc(N)n1
inactive: [20] 104 % of control | [17] 104 % of control | [21] 107 % of control

O=C(O)C1C(C2c3ccc(O)cc3Oc3cc(O)ccc32)C2(Cl)C(Cl)=C(Cl)C1(Cl)C2(Cl)Cl (stereo unspecified)
inactive: [1] 100 % of control | [2] 93 % of control | [3] 94 % of control

From PubChem BioAssay AID248 (DTP/NCI, 2004)
